From US20100323011A1, “PHARMACEUTICAL COMPOSITIONS OF A COMBINATION OF METFORMIN AND A DIPEPTIDYL PEPTIDASE-IV INHIBITOR” (priority 2008, published 2010)
Structures can show the parent of a compound that is named as a salt.

Legend:
[1] = oral administration to human Type 2 diabetics; cited from earlier work
[2] = In vitro dissolution of sitagliptin phosphate from the drug film layer; assay type: physicochemical; conditions: FIG. 4

SMILES | effect on fasting glucose, postprandial glucose excursion and HbA1c [1] | dissolution of sitagliptin phosphate compared with sitagliptin phosphate in JANUMET ([2]; comparator JANUMET (immediate-release metformin HCl and sitagliptin phosphate)) | time to complete dissolution of sitagliptin phosphate from the drug film layer ([2]; drug film layer of the composition) [min]
Cn1c(=O)cc(N2CCC[C@@H](N)C2)n(Cc2ccccc2C#N)c1=O [alogliptin] | reduce fasting glucose and postprandial glucose excursion | – | –
N[C@@H](CC(=O)N1CCn2c(nnc2C(F)(F)F)C1)Cc1cc(F)c(F)cc1F [sitagliptin phosphate, dihydrogenphosphate salt of (2R)-4-oxo-4-[3-(trifluoromethyl)-5,6-dihydro[1,2,4]triazolo[4,3-a]pyrazin-7(8H)-yl]-1-(2,4,5-trifluorophenyl)butan-2-amine] | – | comparable | ≤ 30
N[C@@H](CC(=O)N1CCn2c(nnc2C(F)(F)F)C1)Cc1cc(F)c(F)cc1F [sitagliptin, (2R)-4-oxo-4-[3-(trifluoromethyl)-5,6-dihydro[1,2,4]triazolo[4,3-a]pyrazin-7(8H)-yl]-1-(2,4,5-trifluorophenyl)butan-2-amine] | reduce fasting glucose and postprandial glucose excursion | – | –
N#C[C@@H]1CCCN1C(=O)CNC12CC3CC(CC(O)(C3)C1)C2 [vildagliptin] | reduce fasting glucose and postprandial glucose excursion | – | –
